This is an account of results in paper PMC6668146, “Molecular characterization and functional analysis of the Schistosoma mekongi Ca^2+-dependent cysteine protease (calpain)” (Parasites & Vectors, 2019).

The experiment concerns the target rSmeCalp1 (recombinant Schistosoma mekongi calpain 1) (Schistosoma mekongi, UniProt A0A5B8WCQ5). Description: fluorogenic protease assay (AMC release). The format is biochemical.

Peptide text beside a SMILES is read from it. * marks the point of attachment. Cbz = O=C(OCc1ccccc1)*

rSmeCalp1 (recombinant Schistosoma mekongi calpain 1), sequence (A0A5B8WCQ5 entry or part of it): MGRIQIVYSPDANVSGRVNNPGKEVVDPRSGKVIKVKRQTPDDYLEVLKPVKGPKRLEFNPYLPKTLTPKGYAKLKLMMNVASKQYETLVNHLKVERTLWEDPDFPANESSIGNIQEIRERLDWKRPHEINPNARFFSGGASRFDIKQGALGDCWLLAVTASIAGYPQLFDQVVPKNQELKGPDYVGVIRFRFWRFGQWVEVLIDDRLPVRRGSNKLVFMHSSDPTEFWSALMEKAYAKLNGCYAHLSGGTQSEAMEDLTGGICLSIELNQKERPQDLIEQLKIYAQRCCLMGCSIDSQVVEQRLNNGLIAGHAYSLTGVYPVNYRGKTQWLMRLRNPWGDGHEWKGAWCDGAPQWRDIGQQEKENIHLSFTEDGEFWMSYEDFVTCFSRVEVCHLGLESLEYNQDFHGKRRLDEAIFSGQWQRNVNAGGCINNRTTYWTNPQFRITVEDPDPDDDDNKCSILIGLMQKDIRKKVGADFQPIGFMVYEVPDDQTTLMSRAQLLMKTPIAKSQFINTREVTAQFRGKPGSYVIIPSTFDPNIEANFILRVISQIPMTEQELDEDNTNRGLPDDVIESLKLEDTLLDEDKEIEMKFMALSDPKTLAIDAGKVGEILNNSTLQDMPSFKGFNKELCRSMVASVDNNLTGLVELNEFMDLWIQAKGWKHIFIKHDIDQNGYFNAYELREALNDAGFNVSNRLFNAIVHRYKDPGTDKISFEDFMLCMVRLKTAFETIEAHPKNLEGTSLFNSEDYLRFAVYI

A word on the inhibition: it is the percentage by which the read-out fell short of the control. As for `CC(C)C[C@H](NC(=O)[C@@H]1O[C@H]1C(=O)O)C(=O)NCCCCN=C(N)N` [E64], the inhibition at 100 µM came to 98%.

In the case of `CC(C)CCNC(=O)[C@H](CC(C)C)NC(=O)[C@H]1O[C@@H]1C(=O)O` [E64c], the inhibition at 100 µM was found to be 87%.

With `CC(C)[C@H](NC(=O)OCc1ccccc1)C(=O)N[C@H](C=O)Cc1ccccc1` [MDL28170] (Cbz-Val-Phe-aldehyde), the inhibition at 100 µM turned out to be 94%.
